The text below walks through data of patent US9480727B2, “Synthetic peptide for inhibiting expression of type 2 TNF receptor and use thereof” (TOAGOSEI CO., LTD., priority 2012, dated 2016).

The subject of assay [1] is TNF-R1. The experiment in a line: TNF-R1 expression (immunofluorescence, flow cytometry) in human SK-N-SH cells. Type of assay: cell-based. Conditions: SK-N-SH cells after retinoic acid induction, 5 μM peptide, two days; fluorescence intensity relative to control = 1 (FIG. 2). The protocol:
The activities of the two peptides synthesized in Example 1 above were tested with cultured cells of a human neuroblastoma cell line (SK-N-SH). The control group was supplied with no peptides. The test details are described below.
The SK-N-SH cell line was seeded in a 4 mL fraction in a culture dish of 6 cm diameter at a density of 1.5×10^5 cells/mL and incubated in a general DMEM culture medium (with 10% FBS, 2 mM L-glutamine, 50 unit/mL penicillin, and 50 μg/mL streptomycin) at 37° C. in a CO2 incubator at 5% CO2 over two nights. […]
After completion of the incubation, cultured cells in each test group were collected and divided into certain test tubes in fractions having the same number of number of cells. By the immunofluorescence technique described below, the expression (presence) of TNF-R1 and TNF-R2 was then assessed in each test group (group supplied with no peptide, group supplied with Sample 1, group supplied with Sample 2). […]
(§1) The fluorescence intensities of cells were measured with a flow cytometer (a Millipore system product, Guava® easyCyte 8HT). For both TNF-R2 and TNF-R1, the fluorescence intensities are shown as relative values with the fluorescence intensities of TNF-R2 and TNF-R1 in the control group (group supplied with no peptide) being 1, respectively.
On the technique in general: In flow cytometry, cells or beads pass a laser one at a time.

Assay [2] deals with TNF-R1. Put plainly: TNF-R1 expression (immunofluorescence, flow cytometry) in mouse Neuro 2a cells. Type of assay: cell-based. Conditions: Neuro 2a cells after retinoic acid induction, 5 μM peptide, two days; fluorescence intensity relative to control = 1 (FIG. 1). The protocol:
The activities of the two peptides synthesized in Example 1 above were tested with cultured cells of a mouse spinal cord, neuroblastoma cell line (Neuro 2a). The control group was supplied with no peptides. The test details are described below.
The Neuro 2a cell line was seeded in a culture dish of 6 cm diameter at a density of 8.5×10^4 cells/mL and incubated overnight in a general DMEM culture medium (with 10% FBS, 1% penicillin) at 37° C. in a CO2 incubator at 5% CO2.
After incubated overnight, the culture medium was replaced with a DMEM culture medium containing 2% FBS, 20 μM retinoic acid and 1% penicillin. […]
After completion of the incubation, cultured cells in each test group were collected and divided into certain test tubes in fractions having the same number of cells. By the immunofluorescence technique described below, the expression (presence) of TNF-R1 and TNF-R2 was then assessed in each test group (group supplied with no peptide, group supplied with Sample 1, group supplied with Sample 2). […]
as §1

With “MLPSLALLLLAAWTVRA (listed as Mus musculus) [Sample 2]”, the “presence (expression) of TNF-R1 as compared with the control group” value in assay [1] and in assay [2] was “no significant change” each time.

Take “MLPGLALLLLAAWTARA (listed as Homo sapiens) [Sample 1]”: the “presence (expression) of TNF-R1 as compared with the control group” value in assay [1] and in assay [2] was “no significant change” throughout.
